Results: patent US10752900B2, “Oligonucleotides for modulating gene expression and uses thereof” (BIOGENERA S.P.A., priority 2012, dated 2020)

Experiments:
[1] = system: rabdomyosarcoma cells (RH30); test: Cellular proliferation assay (ATP-Lite), RH30 cells; type: cell-based, human; conditions: Table 6, PNA
Experimental: For the purpose of assessing the gene modulation ability of the oligonucleotides of the present invention, the effect of their administration on cell viability was determined. For this purpose 5×10^3 cells per well were seeded into 96-well cell culture plates (experiments conducted in triplicate) with 100 μl of OPTI-MEM (GIBCO BRL) medium containing 4% FBS and 2 mM of L-glutammine. The PNA oligonucleotides were administered at different concentrations (1 μM-2.5 μM-5 μM-10 μM) in order to observe a dose-effect relationship. As regards all the other oligonucleotides, the concentrations at which they administered are listed in the paragraph: The viability of the treated cells was determined at 48, 72, 96 and 168 hours after treatment. Cell viability was assessed by means of an ATP-Lite assay (Luminescence ATP Detection Assay System, PerkinElmer) and is reported as the ratio between the average signal of the treated wells compared to the average value of the wells of untreated control cells. The cells were processed following the instructions provided with the kit. The assays were performed on the same cell lines used to determine the levels of the MYCN gene messenger and listed in the paragraph: Treatments with Oligonucleotides-QT-PCR. The PNAs having SEQ ID NO: 1-12 were also tested on different cell lines which overexpress MYCN (Kelly, SKNBE2c, RH30, […] 1 and H69). The results are shown in Table 6 and confirm the selectivity and specificity of the inhibition effect of the PNAs on the product of protein translation of the MYCN gene. Chimeric oligonucleotides comprising DNA monomers and LNA monomers and having the MYCN gene as their target were tested in vitro on alveolar rabdomyosarcoma cells (RH30). […] The antisense oligonucleotides designed and synthesized by the Applicant according to the parameters described in the present invention were analyzed in vitro on rabdomyosarcoma cells (RH30).

MYCN gene = test: QT-PCR, MYCN mRNA in RH30 cells; type: cell-based, human; conditions: Table 6, PNA
Experimental: For the purpose of assessing the ability of the oligonucleotides of the present invention to modulate the expression of the target genes, their ability to reduce the quantity of messenger RNA was analyzed using the Real-Time PCR technique. For this purpose, use was made of 24-well plates, which were seeded with 5.0×10^4 cells with 0.3 ml of OPTI-MEM (GIBCO BRL) medium, 4% FBS and 2 mM L-glutammine (experiments in triplicate) per well. The cells were incubated for 24 hours at 37° C., in an atmosphere containing 5% CO2 to permit adherence to the base of the wells. Each oligonucleotide analyzed, except for the PNA oligonucleotides, was incubated beforehand with 2 μl of Lipofectamine 2000 (Invitrogen), with 0.3 mL of serum-free OPTI-MEM (GIBCO BRL) medium. For each well, the oligonucleotides were analyzed at the following final concentrations: • the antisense oligonucleotides siRNA and siRNA gapmer (i.e. the oligonucleotides containing one or more monomers of chemically modified nucleic acids at the 3' or 5' end, while in the central portion they have monomers of nucleic acids that have not been modified or have been modified at the level of the phosphodiester bond as a phosphorothioate bond) were used at 200 nM; • the antisense oligonucleotides containing phosphorothioate DNA monomers, the RNA antigene oligonucleotides (agRNA) and the oligonucleotides containing DNA monomers and LNA monomers were used at 10 μM; • the morpholino oligonucleotides were used at a concentration of 1 μM, and • the PNA oligonucleotides were administered at a concentration of 1 μM. The cells were treated with the oligonucleotides, adding FBS up to 4% 6 hours after administration of the same. After 24 hours the total RNA was extracted from each well and purified using the RNeasy Mini Kit (QIAGEN). Assays were performed on 8 cell lines obtained from 5 different human tumours which are correlated with MYCN expression, i.e.: • as a neuroblastoma model use was made of the cell lines Kelly, IMR-32 (where the MYCN gene is amplified and superexpressed) and SKNBE2c and LAN1 (where the MYCN gene is amplified and superexpressed and the p53 gene is mutated); • as a rabdomiosarcoma model use was made of the cell line RH30, where the MYCN gene is amplified and superexpressed; • as a Wilms' tumour model use was made of the cell line WiT49, where the MYCN gene is amplified and superexpressed; • as a retinoblastoma model use was made of the cell line Y79, where the MYCN gene is amplified and superexpressed; and • as a model of small cell lung cancer use was made of the cell line H69 where the MYCN gene is amplified and superexpressed. As a control, use was made of the same cell lines as listed above treated with sterile water instead of oligonucleotides. Each RNA sample was quantified (in duplicate) using a NanoDrop ND-1000 spectrophotometer (NanoDrop Technologies). The first strand of cDNA was produced using the cDNA Synthesis Kit for RT-PCR (Roche). For the cDNA synthesis reaction a total of 1 μg of RNA was used. For the real-time PCR, 10 ng of cDNA in a final volume of 20 μl was used with SYBR Green Master Mix 2× (Applied Biosystems) (3 identical experiments were conducted in triplicate). Two housekeeping genes were used as positive controls: GAPDH and beta-actin (ACTB). The conditions of the QT-PCR reaction were: 10 min at 95° C., 20 sec at 95° C., and 30 sec at 60° C., for 50 cycles. The PNAs having SEQ ID NO: 1-12 were also tested on different cell lines which overexpress MYCN (Kelly, SKNBE2c, RH30, […] 1 and H69). The results are shown in Table 6 and confirm the selectivity and specificity of the inhibition effect of the PNAs on the product of protein translation of the MYCN gene. Chimeric oligonucleotides comprising DNA monomers and LNA monomers and having the MYCN gene as their target were tested in vitro on alveolar rabdomyosarcoma cells (RH30). […]

Substance | RH30 % cell prol. [1] [%] | RH30 % mRNA (MYCN gene) [%]
SEQ ID NO: 1: PNA ATGCCGGGCATGATCT against MYCN; subject of patent EP 1618195, control sequence used for comparison (all peptide nucleic acid (PNA)) [reference compound] | 76 | 39
SEQ ID NO: 2: PNA antigene oligonucleotide GGGTGGATGCGGGGGG directed against MYCN (PNA backbone, chemistry not fully specified) | 56 | 74
SEQ ID NO: 3: PNA antigene oligonucleotide GATGCGGGGGGCTCCT directed against MYCN (PNA backbone, chemistry not fully specified) | 59 | 65
SEQ ID NO: 4: PNA antigene oligonucleotide GTCGGCGGGAGGTAAG directed against MYCN (PNA backbone, chemistry not fully specified) | 62 | 57
SEQ ID NO: 5: PNA antigene oligonucleotide GCTGGGTGGATGCGGG directed against MYCN (PNA backbone, chemistry not fully specified) | 64 | 56
SEQ ID NO: 6: PNA antigene oligonucleotide TGGACGCGCTGGGTGG directed against MYCN (PNA backbone, chemistry not fully specified) | 64 | 56
SEQ ID NO: 7: PNA antigene oligonucleotide CGCGCTGGGTGGATGC directed against MYCN (all peptide nucleic acid (PNA)) | 63 | 55
SEQ ID NO: 8: PNA antigene oligonucleotide GTCTGGACGCGCTGGG directed against MYCN (all peptide nucleic acid (PNA)) | 60 | 58
SEQ ID NO: 9: PNA antigene oligonucleotide CCCTGCAGTCGGCGGG directed against MYCN (all peptide nucleic acid (PNA)) | 71 | 50
SEQ ID NO: 10: PNA antigene oligonucleotide CGGCCGCGGGCCGCCA directed against MYCN (PNA backbone, chemistry not fully specified) | 80 | 29
SEQ ID NO: 11: PNA antigene oligonucleotide GGGAACTGTGTTGGAG directed against MYCN (PNA backbone, chemistry not fully specified) | 78 | 31
SEQ ID NO: 12: PNA antigene oligonucleotide TGTCTGGACGCGCTGG directed against MYCN (all peptide nucleic acid (PNA)) | 77 | 32
